From patent publication US20240360194A1, “New Peptides as Potent and Selective GIP Receptor Agonists” (Sanofi, priority 2021, published 2024)
Values after ≈ are worked out from the molar mass of the structure shown. Numbered stars: 1 amine (or outer) side, 2 acyl side, 3 side chain; on linkers, the order of the positions; unused ones are H or OH. Square brackets hold non-standard residues; d marks the D form. Side chains are listed from the residue outwards. Peptide text beside a SMILES is read from it. * marks the point of attachment. C18 diacid = O=C(O)CCCCCCCCCCCCCCCCC(=O)*; γGlu = O=C(O)[C@H](CCC(=O)[*:2])N[*:1]; AEEA = NCCOCCOCC(=O)O; Aib = CC(C)(N)C(=O)O

Columns and labels:
[1] = Chemical stability assessment (UHPLC-UV purity loss on storage in solution); type: physicochemical; conditions: Chemical stability buffer system A: 20 mM phosphate buffer pH 7.4; ~300 μM
Protocol: Purity of a peptide batch was determined through UHPLC/MS prior to chemical stability measurement. The target concentration was 300 μM pure compound. Solutions from solid samples were prepared in the following buffer systems with a concentration of ˜300 μM compound based on the previously determined % purity: • Chemical stability buffer system A) 20 mM phosphate buffer pH 7.4, • Chemical stability buffer system B) 8 mM phosphate buffer pH 7.4, 14 mg/ml propylene glycol, 5.5 mg/ml phenol • Chemical stability buffer system C) 100 mM phosphate buffer pH 7.4, 2.7 mg/ml m-cresol
Prepared solutions were filtered through […] pore size and filled into sterilized glass containers under laminar flow conditions.
Glass containers were stored for 28 days at 5 and 40° C. After this time, the samples were centrifuged for 15 min at 2500 RCF. Then 1.5 μl of the undiluted supernatant were analysed with UHPLC-UV.
The chemical stability was rated through the relative loss of purity calculated by the equation: […]
The purity is calculated as
The analytical methods used were Analytical UHPLC Method B or C.
Peptide samples were prepared in Chemical stability buffer system A or B and stability was assessed as described in Methods.

[2] = Solubility assessment (UHPLC-UV of supernatant, target 10 mg/ml); type: physicochemical; conditions: for solubility at 24 h: pH 7.4, Soluble amount
How it was run: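 Peptides at 10 mg/ml (purity-corrected) in 100 mM phosphate pH 7.4, optionally with 2.7 mg/ml m-cresol; gentle agitation 1 h, then 5° C. overnight (24 h). Supernatant after 15 min centrifugation at 2500 RCF quantified by UHPLC-UV, with sequence-based extinction coefficients.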

[3] = ThT assay for the assessment of physical stability (fibrillation); type: physicochemical; conditions: ThT buffer system A: 100 mM phosphate buffer pH 7.4; 3 mg/ml, 37° C., shaking
Description: Low physical stability of a peptide solution may lead to amyloid fibril formation, which is observed as well-ordered, thread-like macromolecular structures in the sample, which eventually may lead to gel formation. Thioflavin T (ThT) is widely used to visualize and quantify the presence of misfolded protein aggregates [Biancalana et al., Biochim. Biophys. Acta 2010, 1804(7), 1405]. […] Enzymol. 1999, 309, 274]. The time course for fibril formation often follows the characteristic shape of a sigmoidal curve and can be separated into three regions: a lag phase, a fast growth phase, and a plateau phase. The typical fibril formation process starts with the lag phase in which the amount of partially folded peptide turned into fibrils is not significant enough to be detected. The lag-time corresponds to the time the critical mass of the nucleus is built. Afterwards, a drastic elongation phase follows, and fibril concentration increases rapidly. Investigations were carried out to determine fibrillation tendencies under stress conditions by shaking at 37° C. within Fluoroskan Ascent FL or Fluoroskan Ascent. For the tests in Fluoroskan Ascent (FL), 200 μl sample were placed into a 96-well mictrotiter plate PS, flat bottom, Greiner Fluotrac No. 655076. Plates were sealed with Scotch Tape (Qiagen). Samples were stressed by continuous cycles of 10 sec shaking at 960 rpm and 50 sec rest period at 37° C. The kinetic was monitored by measuring fluorescence intensity every 20 min. Peptides were diluted in a buffer system to a final concentration of 3 mg/ml. 20 μl of a 10.1 mM ThT solution in H2O were added to 2 ml of peptide solution to receive a final concentration of 100 μM ThT. For each sample eight replicates were tested. • ThT buffer system A) 100 mM phosphate buffer pH 7.4 • ThT buffer system B) 100 mM phosphate buffer pH 7.4, 2.7 mg/ml m-cresol Lag time in hours (h) in Thioflavin T (ThT) assay of peptide samples was determined in ThT buffer system A as described in Methods.

[4] = target: T1, human GIP receptor (hGIPR) (Homo sapiens, UniProt P48546); assay: Binding assay, displacement of [125I]GIP from HEK-293 membranes over-expressing GIPR (SPA); conditions: [125I]GIP displacement
T1 sequence (P48546 22-466): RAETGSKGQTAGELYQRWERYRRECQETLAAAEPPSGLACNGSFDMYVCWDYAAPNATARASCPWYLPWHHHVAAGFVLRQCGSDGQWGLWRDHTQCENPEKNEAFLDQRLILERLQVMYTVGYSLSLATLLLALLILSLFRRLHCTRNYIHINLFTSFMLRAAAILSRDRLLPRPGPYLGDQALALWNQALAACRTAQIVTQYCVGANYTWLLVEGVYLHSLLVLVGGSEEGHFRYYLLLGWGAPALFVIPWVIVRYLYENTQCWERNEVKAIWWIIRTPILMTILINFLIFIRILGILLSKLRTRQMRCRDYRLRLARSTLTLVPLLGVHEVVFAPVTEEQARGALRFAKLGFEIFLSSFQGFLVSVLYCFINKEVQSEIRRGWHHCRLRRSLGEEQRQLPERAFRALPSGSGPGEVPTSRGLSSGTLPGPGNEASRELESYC
How it was run: (§1)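 Membranes from HEK-293 cells over-expressing human GIPR or GLP-1R, isolated by homogenising, sonicating and ultracentrifuging at 100000×g into HEPES/EDTA/NaCl buffer with protease inhibitors, were used for binding.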

[5] = target: human GLP-1 receptor (hGLP-1R) (Homo sapiens, UniProt P43220); assay: Binding assay, displacement of [125I]GLP-1 from HEK-293 membranes over-expressing GLP-1R (SPA); conditions: [125I]GLP-1 displacement
How it was run: as §1

| SMILES | Relative purity loss over 28 days at 40° C. [1] [%] | Soluble amount ([2]; 24 h, pH 7.4) [mg/mL] | solubility at 24 h [2] [µg/mL] | Increase in FI [3] | Lag time before increase [3] [h] | IC50 [4] [nM] | IC50 [5] [nM] |
| --- | --- | --- | --- | --- | --- | --- | --- |
| CC[C@H](C)[C@H](NC(=O)[C@H](Cc1ccccc1)NC(=O)[C@H](CCC(=O)O)NC(=O)[C@H](CCC(=O)O)NC(=O)[C@H](CCC(N)=O)NC(=O)[C@H](Cc1c[nH]cn1)NC(=O)[C@@H](NC(=O)[C@H](CCCNC(=N)N)NC(=O)[C@H](CC(=O)O)NC(=O)[C@H](CCCCNC(=O)COCCOCCNC(=O)COCCOCCNC(=O)CC[C@H](NC(=O)CCCCCCCCCCCCCCCCC(=O)O)C(=O)O)NC(=O)C(C)(C)NC(=O)[C@@H](NC(=O)[C@H](CO)NC(=O)[C@H](CC(C)C)NC(=O)[C@H](CC(=O)O)NC(=O)[C@H](CO)NC(=O)[C@@H](NC(=O)[C@H](Cc1ccccc1)NC(=O)[C@@H](NC(=O)CNC(=O)[C@H](CCC(=O)O)NC(=O)C(C)(C)NC(=O)[C@@H](N)Cc1ccc(O)cc1)[C@@H](C)O)[C@@H](C)CC)[C@@H](C)CC)[C@@H](C)CC)C(=O)N[C@@H](CCC(N)=O)C(=O)N[C@@H](Cc1c[nH]c2ccccc12)C(=O)N[C@@H](CC(C)C)C(=O)N[C@@H](CC(C)C)C(=O)N[C@@H](C)C(=O)N[C@@H](CCC(N)=O)C(=O)NCC(=O)N1CCC[C@H]1C(=O)N[C@@H](CO)C(=O)N[C@@H](CO)C(=O)NCC(=O)N[C@@H](C)C(=O)N1CCC[C@H]1C(=O)N1CCC[C@H]1C(=O)N1CCC[C@H]1C(=O)N[C@@H](CO)C(N)=O [SEQ ID NO: 35, H2N-Y-Aib-E-G-T-F-I-S-D-L-S-I-Aib-K[{AEEA}2-gGlu-C18OH]-DRIHQEEFIQWLLAQGPSSGAPPPS-NH2] (H-Y[Aib]EGTFISDLSI[Aib]K([AEEA-AEEA-γGlu-C18 diacid])DRIHQEEFIQWLLAQGPSSGAPPPS-NH2) | 8.3 | >9.7 | > 9500 | no | >45 | 0.6 | > 100 |
| CC[C@H](C)[C@H](NC(=O)[C@H](CCC(=O)O)NC(=O)[C@H](CCC(=O)O)NC(=O)[C@H](CCCCNC(=O)COCCOCCNC(=O)COCCOCCNC(=O)CC[C@H](NC(=O)CCCCCCCCCCCCCCCCC(=O)O)C(=O)O)NC(=O)C(C)(C)NC(=O)[C@@H](NC(=O)[C@H](CO)NC(=O)[C@H](CC(C)C)NC(=O)[C@H](CC(=O)O)NC(=O)[C@H](CO)NC(=O)[C@@H](NC(=O)[C@H](Cc1ccccc1)NC(=O)[C@@H](NC(=O)CNC(=O)[C@H](CCC(=O)O)NC(=O)C(C)(C)NC(=O)[C@@H](N)Cc1ccc(O)cc1)[C@@H](C)O)[C@@H](C)CC)[C@@H](C)CC)C(=O)N[C@@H](Cc1c[nH]cn1)C(=O)N[C@@H](CCC(N)=O)C(=O)NC(C)(C)C(=O)N[C@@H](CCC(=O)O)C(=O)N[C@@H](Cc1ccccc1)C(=O)N[C@H](C(=O)N[C@@H](CCC(=O)O)C(=O)N[C@@H](Cc1c[nH]c2ccccc12)C(=O)N[C@@H](CC(C)C)C(=O)N[C@@H](CC(C)C)C(=O)N[C@@H](C)C(=O)N[C@@H](CCC(N)=O)C(=O)NCC(=O)N1CCC[C@H]1C(=O)N[C@@H](CO)C(=O)N[C@@H](CO)C(=O)NCC(=O)N[C@@H](C)C(=O)N1CCC[C@H]1C(=O)N1CCC[C@H]1C(=O)N1CCC[C@H]1C(=O)N[C@@H](CO)C(N)=O)[C@@H](C)CC [SEQ ID NO: 19, H2N-Y-Aib-E-G-T-F-I-S-D-L-S-I-Aib-K[{AEEA}2-gGlu-C18OH]-E-E-I-H-Q-Aib-E-F-I-E-W-L-L-A-Q-G-P-S-S-G-A-P-P-P-S-NH2] (H-Y[Aib]EGTFISDLSI[Aib]K([AEEA-AEEA-γGlu-C18 diacid])EEIHQ[Aib]EFIEWLLAQGPSSGAPPPS-NH2) | 4.3 |  |  | no | >45 |  | 183 |
| CC[C@H](C)[C@H](NC(=O)[C@H](CCCNC(=N)N)NC(=O)[C@H](CC(=O)O)NC(=O)[C@H](CC(C)C)NC(=O)C(C)(C)NC(=O)[C@@H](NC(=O)[C@H](CO)NC(=O)[C@H](CC(C)C)NC(=O)[C@H](CC(=O)O)NC(=O)[C@H](CO)NC(=O)[C@@H](NC(=O)[C@H](Cc1ccccc1)NC(=O)[C@@H](NC(=O)CNC(=O)[C@H](CCC(=O)O)NC(=O)C(C)(C)NC(=O)[C@@H](N)Cc1ccc(O)cc1)[C@@H](C)O)[C@@H](C)CC)[C@@H](C)CC)C(=O)N[C@@H](CCCCNC(=O)COCCOCCNC(=O)COCCOCCNC(=O)CC[C@H](NC(=O)CCCCCCCCCCCCCCCCC(=O)O)C(=O)O)C(=O)N[C@@H](CCC(N)=O)C(=O)NC(C)(C)C(=O)N[C@@H](CCC(=O)O)C(=O)N[C@@H](Cc1ccccc1)C(=O)N[C@H](C(=O)N[C@@H](CCC(=O)O)C(=O)N[C@@H](Cc1c[nH]c2ccccc12)C(=O)N[C@@H](CC(C)C)C(=O)N[C@@H](CC(C)C)C(=O)N[C@@H](C)C(=O)N[C@@H](CCC(N)=O)C(=O)NCC(=O)N1CCC[C@H]1C(=O)N[C@@H](CO)C(=O)N[C@@H](CO)C(=O)NCC(=O)N[C@@H](C)C(=O)N1CCC[C@H]1C(=O)N1CCC[C@H]1C(=O)N1CCC[C@H]1C(=O)N[C@@H](CO)C(N)=O)[C@@H](C)CC [SEQ ID NO: 37, H2N-Y-Aib-E-G-T-F-I-S-D-L-S-I-Aib-L-D-R-I-K[{AEEA}2-gGlu-C18OH]-Q-Aib-E-F-I-E-W-L-L-A-Q-G-P-S-S-G-A-P-P-P-S-NH2] (H-Y[Aib]EGTFISDLSI[Aib]LDRIK([AEEA-AEEA-γGlu-C18 diacid])Q[Aib]EFIEWLLAQGPSSGAPPPS-NH2) | 5.3 |  | 8600 (≈ 1740 µM) | no | >45 | 0.1 |  |
